From patent US6046238A, “Method for treating or preventing the spread of acne vulgaris” (TriStrata, Inc., priority 1999, dated 2000)
Entries after “also recorded” stand apart in the source; their conditions may differ.

Tests used:
[1] = caused by microbial infections including P. acnes; salicylic acid alone; cited from earlier work
[2] = treatment of oral infections; assay type: in vivo, human; details: 2% composition diluted to 0.1%; oral rinse twice daily
Protocol: Compositions for treatment of oral infections may contain an aryl 2-acetoxyethanoic acid as the only active ingredient. In this case a phenyl 2-acetoxyethanoic acid or diphenyl 2-acetoxyethanoic acid 2% composition was formulated by dissolving the active ingredient 2 g in ethanol 78 ml and propylene glycol 20 ml. Before use, this composition was diluted to 0.1% with water by mixing one part of the composition with 19 parts of water. The treatment involves oral rinse, wash and gargle by keeping the diluted composition inside the oral cavity for a few minutes, and then spit out. Such procedure may be repeated twice daily for several days until the infection is eradicated usually within 5-7 days.

[3] = axillary antiodor effectiveness (treatment); assay type: in vivo, human; details: 0.5%
Description: In another study the subjects were instructed not to take a shower in the morning. After the foul odor developed in both axillae, the subjects were instructed to apply the test composition containing 0.5% phenyl 2-acetoxyethanoic acid or diphenyl 2-acetoxyethanoic acid on the left underarm area and the control vehicle on the right underarm area. Topical applications were made once daily for several days.
Usually the left underarm ceased emanating any detectable foul odor after 1 day of topical use. The subjects were instructed at this time to apply the test composition containing 0.5% phenyl 2-acetoxyethanoic acid or diphenyl 2-acetoxyethanoic acid on the right underarm area also. Topical applications were made once daily for several days. The right axilla ceased to emanate any detectable foul odor after 1 to 2 days of topical use.

[4] = topical treatment of nail infections; assay type: in vivo, human; details: non-synergistic composition, twice daily
Description: The participating subjects in the present study were instructed to apply twice daily the composition containing phenyl 2-acetoxyethanoic acid or diphenyl 2-acetoxyethanoic acid with or without clotrimazole as an additional antimicrobial agent.
In order to determine the antimicrobial effect of an aryl 2-acetoxyethanoicacid, a standard test method of Minimum Inhibitory Concentration (MIC) against the growth of 10 bacteria was used. To determine a prophylactic effect against the development of, as well as a topical effect in the treatment of, body foul door, eleven human subjects participated in this study. […] Scientific and test results are overviewed as follows.

[5] = topical treatment of folliculitis and perifolliculitis; assay type: in vivo, human; details: 0.9%, twice daily; nine patients
Protocol: Nine patients having various degrees of folliculitis and perifolliculitis participated in this study. A test composition containing 0.9% phenyl 2-acetoxyethanoic acid or diphenyl 2-acetoxyethanoic acid was prepared by dissolving 0.9 g compound in 79.1 ml 2-propanol, 15 ml butane-1,3-diol and 5 ml nonoxynol-6. The composition was packaged in one-ounce bottles. The patients were instructed to apply the test composition twice daily on the infected skin lesions and involved areas. Topical applications were continued up to 8 weeks.

[6] = reversal of corticosteroid unresponsiveness in psoriasis; assay type: in vivo, human; details: added once daily to corticosteroid twice daily; seven patients
Protocol: To determine the therapeutic responsive effect of an aryl 2-acetoxyethanoicacid against psoriasis seven patient participated in this study. A test composition was prepared by dissolving 1 g phenyl 2-acetoxyethanoic acid or diphenyl 2-acetoxyethanoic acid in 2 ml ethanol. The solution thus obtained was mixed with 60 g petrolatum and 37 g mineral oil. The anhydrous ointment thus formulated was packaged in one-ounce jars.
When the drug unresponsiveness to a corticosteroid occurred, the participating patients were instructed to apply in addition the test composition once daily to the lesions on the left side of the body only. Topical applications of the corticosteroid were continued twice daily to both sides of the body. […] While psoriatic lesions on the right side of the body remained unresponsive to the topical corticosteroid, the lesions on the left side started to clear after 3 to 4 weeks of additional topical application with the composition containing an aryl 2-acetoxyethanoic acid.
At this time the patients were instructed to shift the additional topical application to the lesions on the right side instead of the left side of the body. The psoriatic lesions on the right side of the body began to clear after 3 to 4 weeks of additional topical application with the composition containing aryl 2-acetoxyethanoic acid.

[7] = prophylactic effect in preventing the development of axillary foul odor; assay type: in vivo, human; details: Example 5; 0.5% solution, topical; one person; up to 24 hours
Protocol: A typical test for prophylactic effect in preventing the development of axillary foul odor was carried out as follows. A test composition was prepared by dissolving 0.5 g of phenyl 2-acetoxyethanoic acid or diphenyl 2-acetoxyethanoic acid in 70 ml of ethanol and 30 ml of propylene glycol. The control vehicle was prepared by mixing 70 ml of ethanol and 30 ml of propylene glycol. A human subject was instructed to take a shower in the morning using ordinary soap to clean the body surfaces. After the skin was dried, the test composition was topically applied to the left underarm area only. The vehicle control was topically applied to the right underarm area. Both underarm areas were monitored by the subject and at least one other person approximately every 8 hours to determine whether the test composition had any prophylactic effect in preventing the development of underarm foul odor in the left axilla as compared to the vehicle alone on the right control armpit.
Presence or substantial absence of foul odor, detected by smell, was adopted as the criteria for ineffectiveness or effectiveness of the test composition.
A total of seven subjects (four females; three males) participated in several studies. Most of these subjects could not use existing commercial products of antiperspirants or deodorants because of severe irritation after topical application. […]

O=C(O)c1ccccc1O [salicylic acid]
effect against acne lesions associated with whiteheads [1]: not therapeutically effective against acne lesions associated with whiteheads

CC(=O)OC(C(=O)O)(c1ccccc1)c1ccccc1 [diphenyl 2-acetoxyethanoic acid]
time within which oral infection is usually eradicated [2]: 5 to 7 days | overall axillary antiodor effectiveness ([3]; topical): topically effective in eradicating the axillary foul odor | left axilla on continued use ([3]; continued, once daily for several days): continued to maintain the condition free of any offensive foul odor | time after which left underarm usually ceased emanating any detectable foul odor ([3]; no-shower study, left side): 1 days | intensity of foul odor, left underarm ([3]; no-shower study, once daily): diminished in intensity of foul odor after one to two days of topical application | time after which left underarm ceased emanating any detectable foul odor ([3]; Example 6, once daily, one person, left side): 1 days | time after which right axilla ceased to emanate any detectable foul odor ([3]; Example 6, right side, formerly vehicle): 1 days | disappearance of nail infections [4]: usually disappeared within one to several months | deeper lesions of papules [5]: eradicated or substantially improved after 4 to 8 weeks of topical applications | superficial folliculitis and perifolliculitis lesions [5]: eradicated or substantially improved after a few days of topical applications | onset of improvement of psoriatic lesions, left side [6]: began to improve after one week | prevention of axillary foul odor (left underarm) [7]: did not produce any detectable odor, even after 24 hours; also recorded: substantially effective in preventing the development of axillary foul odor
